Experimental data taken from patent publication US20260085280A1, “ADAPTATION AND PROCESS OPTIMIZATION OF MICROORGANISMS FOR GROWTH IN HEMICELLULOSIC DERIVED CARBOHYDRATES” (MARA RENEWABLES CORPORATION, priority 2018, published 2026).

How the values were obtained:
[1] = tested on: Gxs1 7-7; experiment: xylose depletion flask assay, medium spiked with increasing concentrations of xylitol; type: cell-based, Thraustochytrium species (ONC-T18); settings: 20 g/L xylose and 8 g/L glucose; for Biomass / Xylose used / Xylose used (%): after 144 hours
Procedure: The impact of xylitol concentration on glucose and xylose consumption was determined using 7-7, Gxs1 7-7, and 51-7 strains. […] In xylose depletion flask assays, Gxs1 7-7 was used with medium containing 20 g/L xylose and 8 g/L glucose and spiked with increasing concentrations of xylitol as shown in Table 4. The values in Table 4 are the total amount of biomass produced and xylose used after 144 hours. The glucose used amounts are shown at 48 hours.

[2] = tested on: 7-7, Gxs1 7-7, and 51-7 strains; experiment: impact of xylitol concentration on glucose and xylose consumption; type: cell-based, Thraustochytrium species (ONC-T18); settings: FIGS. 2A-2D and Table 4
Procedure: The impact of xylitol concentration on glucose and xylose consumption was determined using 7-7, Gxs1 7-7, and 51-7 strains.

For `OC[C@@H](O)[C@H](O)[C@@H](O)CO` [Xylitol, xylitol], the “Glucose used (%) @48 hr” value ([1]; 1 g L^−1 xylitol) was 99.9%, the “Glucose used (g) @48 hr” value ([1]; 1 g L^−1 xylitol) was 9.04 g and the Biomass ([1]; 1 g L^−1 xylitol) was 7.225 g/L. The “Xylose used” value ([1]; 1 g L^−1 xylitol) was 11.03 g, the “Xylose used (%)” value ([1]; 1 g L^−1 xylitol) was 56.2% and the “Glucose used (%) @48 hr” value ([1]; 5 g L^−1 xylitol) was 43.7%. For the same compound, the “Glucose used (g) @48 hr” value ([1]; 5 g L^−1 xylitol) was 3.99 g, the Biomass ([1]; 5 g L^−1 xylitol) was 6.683 g/L and the “Xylose used” value ([1]; 5 g L^−1 xylitol) was 5.06 g. The “Xylose used (%)” value ([1]; 5 g L^−1 xylitol) was 25.5%, the “Glucose used (%) @48 hr” value ([1]; 10 g L^−1 xylitol) was 18.6% and the “Glucose used (g) @48 hr” value ([1]; 10 g L^−1 xylitol) was 1.66 g. For the same compound, the Biomass ([1]; 10 g L^−1 xylitol) was 6.425 g/L, the “Xylose used” value ([1]; 10 g L^−1 xylitol) was 4.24 g and the “Xylose used (%)” value ([1]; 10 g L^−1 xylitol) was 22.0%. For the same compound, the “Glucose used (%) @48 hr” value ([1]; 15 g L^−1 xylitol) was 12.8%, the “Glucose used (g) @48 hr” value ([1]; 15 g L^−1 xylitol) was 1.13 g and the Biomass ([1]; 15 g L^−1 xylitol) was 6.592 g/L. The “Xylose used” value ([1]; 15 g L^−1 xylitol) was 3.67 g, the “Xylose used (%)” value ([1]; 15 g L^−1 xylitol) was 19.3% and the “xylitol concentration to be kept in order to avoid growth inhibition” value [2] was “lower than 1 g/L”.
